In patent US12319672B2, “Alpha-D-galactopyranoside derivatives” (Idorsia Pharmaceuticals Ltd, priority 2019, dated 2025):

Columns and labels:
human Gal-3 (hGal-3) = human Gal-3 (hGal-3) (Homo sapiens (Human), UniProt P17931); assay: Competitive binding assay: binding of biotinylated hGal-3 to microplate-adsorbed asialofetuin (ASF); conditions: Activity on hGal-3; mean values of several measurements
In short: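 Biotin-hGal-3/hGal-1 300-1000 ng/mL + cpd (DMSO dilutions) on ASF-coated plate, 3 h 4° C; wash; SA-HRP 80 ng/mL 1 h 4° C; wash; ABTS. IC50 = mean of several runs. hGal-1 preferably Cys→Ser (all six) mutant.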

human Gal-1 (hGal-1) = assay: Competitive binding assay: binding of biotinylated hGal-1 to microplate-adsorbed asialofetuin (ASF); conditions: Activities on hGal-1; mean values of several measurements
In short: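 Compounds diluted in DMSO competed with biotinylated hGal-3 or hGal-1 (300-1000 ng/mL) for binding to plate-adsorbed asialofetuin for 3 h at 4° C. Bound galectin was detected with streptavidin-peroxidase (80 ng/mL, 1 h, 4° C) and ABTS substrate; IC50 reported as mean of several measurements.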

human Gal-3 (hGal-3), sequence (P17931 whole entry): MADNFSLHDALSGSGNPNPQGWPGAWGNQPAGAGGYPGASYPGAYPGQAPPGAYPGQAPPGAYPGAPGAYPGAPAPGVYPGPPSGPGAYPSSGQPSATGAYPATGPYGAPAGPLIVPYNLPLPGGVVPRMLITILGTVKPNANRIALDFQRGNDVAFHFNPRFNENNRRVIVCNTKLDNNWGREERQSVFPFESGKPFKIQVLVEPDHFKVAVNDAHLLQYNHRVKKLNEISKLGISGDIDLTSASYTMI
human Gal-1 (hGal-1), sequence (P09382 2-135 limits assumed): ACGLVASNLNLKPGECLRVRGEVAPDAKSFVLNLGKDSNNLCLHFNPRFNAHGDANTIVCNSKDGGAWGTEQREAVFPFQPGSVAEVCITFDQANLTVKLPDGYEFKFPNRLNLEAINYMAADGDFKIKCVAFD

SMILES	IC50 (human Gal-3 (hGal-3)) [nM]	IC50 (human Gal-1 (hGal-1)) [nM]
CO[C@@H]1[C@@H](n2cc(-c3ccc(C)c(F)c3F)nn2)[C@@H](O)[C@@H](CO)O[C@@H]1CC1CC(C2CCN(C(=O)OC(C)(C)C)CC2)=NO1 (stereo partly drawn) [Ex 1.137]	48	1880
CO[C@@H]1[C@@H](n2cc(-c3cc(F)c(F)c(F)c3)nn2)[C@@H](O)[C@@H](CO)O[C@@H]1Cc1cc(C2(O)CCNCC2)on1 [Ex 1.133]	230	10700
Cn1c(=O)[nH]c2cc(C3=NOC(C[C@H]4O[C@H](CO)[C@H](O)[C@H](n5cc(-c6cc(F)c(F)c(F)c6)nn5)[C@H]4O)C3)ccc21 (stereo partly drawn) [Ex 1.28]	470	18900
CO[C@@H]1[C@@H](n2cc(-c3ccc(F)c(F)c3F)nn2)[C@@H](O)[C@@H](CO)O[C@@H]1Cc1cc(C2CCN(C(C)=O)CC2)on1 [Ex 1.166]	26	260
CO[C@@H]1[C@@H](n2cc(-c3cc(F)c(F)c(F)c3)nn2)[C@@H](O)[C@@H](CO)O[C@@H]1Cc1cn(C2CCN(S(C)(=O)=O)CC2)nn1 [Example 4.07, (2R,3R,4S,5R,6R)-2-(hydroxymethyl)-5-methoxy-6-((1-(1-(methylsulfonyl)piperidin-4-yl)-1H-1,2,3-triazol-4-yl)methyl)-4-(4-(3,4,5-trifluorophenyl)-1H-1,2,3-triazol-1-yl)tetrahydro-2H-pyran-3-ol]	12	100
CO[C@@H]1[C@@H](n2cc(-c3cc(F)c(F)c(F)c3)nn2)[C@@H](O)[C@@H](CO)O[C@@H]1CC1CC(c2cc[nH]c(=O)c2)=NO1 (mixture of isomers) [Example 2.06]	240	260
CO[C@@H]1[C@@H](n2cc(-c3ccc(C)c(F)c3F)nn2)[C@@H](O)[C@@H](CO)O[C@@H]1Cc1cc([C@@H]2C[C@H]2O)on1 [Ex 1.350]	270	6780
COc1ccc(C2=NO[C@@H](C[C@H]3O[C@H](CO)[C@H](O)[C@H](n4cc(-c5cc(F)c(F)c(F)c5)nn4)[C@H]3O)C2)cc1 [Ex 1.04]	580	> 100000
CO[C@@H]1[C@@H](n2cc(-c3cc(F)c(Cl)c(F)c3)nn2)[C@@H](O)[C@@H](CO)O[C@@H]1Cc1cc(C2CCOCC2)on1 [Ex 1.185]	190	1450
CC(C)O[C@@H]1[C@@H](n2cc(-c3cc(F)c(F)c(F)c3)nn2)[C@@H](O)[C@@H](CO)O[C@@H]1Cc1cc(C2CCNCC2)on1 [Example 2.24, (2R,3R,4S,5R,6R)-2-(hydroxymethyl)-5-isopropoxy-6-((5-(piperidin-4-yl)isoxazol-3-yl)methyl)-4-(4-(3,4,5-trifluorophenyl)-1H-1,2,3-triazol-1-yl)tetrahydro-2H-pyran-3-ol]	990	9610
CO[C@@H]1[C@@H](n2cc(-c3ccc(Br)c(F)c3F)nn2)[C@@H](O)[C@@H](CO)O[C@@H]1Cc1cc(C2CCCCC2)on1 [Ex 1.173]	440	47800
CC(=O)N1CCC(C2=NO[C@@H](C[C@H]3O[C@H](CO)[C@H](O)[C@H](n4cc(-c5cc(F)c(F)c(F)c5)nn4)[C@H]3O)C2)CC1 [Example 3.10, 1-(4-((R)-5-(((2R,3R,4R,5R,6R)-3,5-dihydroxy-6-(hydroxymethyl)-4-(4-(3,4,5-trifluorophenyl)-1H-1,2,3-triazol-1-yl)tetrahydro-2H-pyran-2-yl)methyl)-4,5-dihydroisoxazol-3-yl)piperidin-1-yl)ethan-1-one]	620	5500
CO[C@@H]1[C@@H](n2cc(-c3ccc(Cl)c(F)c3)nn2)[C@@H](O)[C@@H](CO)O[C@@H]1Cc1cc(C2CCN(S(C)(=O)=O)CC2)on1 [Ex 1.156]	31	940
CO[C@@H]1[C@@H](n2cc(-c3cc(F)c(F)c(F)c3)nn2)[C@@H](O)[C@@H](CO)O[C@@H]1Cc1cc(C2CCN(C(=O)N3CCCCC3)CC2)on1 [Example 3.66, (4-(3-(((2R,3R,4S,5R,6R)-5-hydroxy-6-(hydroxymethyl)-3-methoxy-4-(4-(3,4,5-trifluorophenyl)-1H-1,2,3-triazol-1-yl)tetrahydro-2H-pyran-2-yl)methyl)isoxazol-5-yl)piperidin-1-yl)(piperidin-1-yl)methanone]	140	3590
CO[C@@H]1[C@@H](n2cc(-c3cc(F)c(F)c(F)c3)nn2)[C@@H](O)[C@@H](CO)O[C@@H]1Cc1cn(C2CCN(S(=O)(=O)C(C)C)CC2)nn1 [Example 4.10, (2R,3R,4S,5R,6R)-2-(hydroxymethyl)-6-((1-(1-(isopropylsulfonyl)piperidin-4-yl)-1H-1,2,3-triazol-4-yl)methyl)-5-methoxy-4-(4-(3,4,5-trifluorophenyl)-1H-1,2,3-triazol-1-yl)tetrahydro-2H-pyran-3-ol]	25	270
CO[C@@H]1[C@@H](n2cc(-c3ccc(Cl)c(F)c3F)nn2)[C@@H](O)[C@@H](CO)O[C@@H]1Cc1cc(C(C)(C)C)on1 [Ex 1.190]	71	4610
CO[C@@H]1[C@@H](n2cc(-c3ccc(Cl)c(F)c3F)nn2)[C@@H](O)[C@@H](CO)O[C@@H]1Cc1cn(C(C)(C)C)nn1 [Example 4.53, (2R,3R,4S,5R,6R)-6-((1-(tert-butyl)-1H-1,2,3-triazol-4-yl)methyl)-4-(4-(4-chloro-2,3-difluorophenyl)-1H-1,2,3-triazol-1-yl)-2-(hydroxymethyl)-5-methoxytetrahydro-2H-pyran-3-ol]	34	750
CO[C@@H]1[C@@H](n2cc(-c3cccc(F)c3F)nn2)[C@@H](O)[C@@H](CO)O[C@@H]1CC1CC(C2CCN(C(=O)OC(C)(C)C)CC2)=NO1 (stereo partly drawn) [Ex 1.329]	69	440
CO[C@@H]1[C@@H](n2cc(-c3cc(F)c(F)c(F)c3)nn2)[C@@H](O)[C@@H](CO)O[C@@H]1CC1=NOC(C2CCN(C(C)=O)CC2)C1 (mixture of isomers) [Example 3.40, 1-(4-((RS)-3-(((2R,3R,4S,5R,6R)-5-hydroxy-6-(hydroxymethyl)-3-methoxy-4-(4-(3,4,5-trifluorophenyl)-1H-1,2,3-triazol-1-yl)tetrahydro-2H-pyran-2-yl)methyl)-4,5-dihydroisoxazol-5-yl)piperidin-1-yl)ethan-1-one]	310	1210
CO[C@@H]1[C@@H](n2cc(-c3ccc(Cl)c(F)c3F)nn2)[C@@H](O)[C@@H](CO)O[C@@H]1Cc1cc(C2CCC2)on1 [Ex 1.227]	77	16600
CO[C@@H]1[C@@H](n2cc(-c3ccc(C)c(F)c3F)nn2)[C@@H](O)[C@@H](CO)O[C@@H]1Cc1cc(C2CCNC(=O)CC2)no1 (stereo partly drawn) [Ex 1.348]	68	250
CCOC(=O)N1CCC(C)(c2cc(C[C@H]3O[C@H](CO)[C@H](O)[C@H](n4cc(-c5ccc(C)c(F)c5F)nn4)[C@H]3OC)on2)CC1 [Ex 1.325]	17	600
CC(=O)O[C@@H]1[C@@H](n2cc(-c3cc(F)c(F)c(F)c3)nn2)[C@@H](O)[C@@H](CO)O[C@@H]1CC1CC(C2CCNCC2)=NO1 (mixture of isomers) [Example 3.14, (2R,3R,4S,5R,6R)-5-hydroxy-6-(hydroxymethyl)-2-(((RS)-3-(piperidin-4-yl)-4,5-dihydroisoxazol-5-yl)methyl)-4-(4-(3,4,5-trifluorophenyl)-1H-1,2,3-triazol-1-yl)tetrahydro-2H-pyran-3-yl acetate]	320	6840
CCC1(c2cc(C[C@H]3O[C@H](CO)[C@H](O)[C@H](n4cc(-c5cc(F)c(F)c(F)c5)nn4)[C@H]3OC)on2)COC1 [Ex 1.212]	160	1600
